One block for each compound: values may come before it. The source made the active and inactive calls.
Experiments:
[1] = target: T1, Cytochrome P450 1A2 (Homo sapiens, UniProt P05177);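 further: PubChem cytochrome P450 panel assay, CYP1A2 panel member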
T1 sequence (P05177 whole entry): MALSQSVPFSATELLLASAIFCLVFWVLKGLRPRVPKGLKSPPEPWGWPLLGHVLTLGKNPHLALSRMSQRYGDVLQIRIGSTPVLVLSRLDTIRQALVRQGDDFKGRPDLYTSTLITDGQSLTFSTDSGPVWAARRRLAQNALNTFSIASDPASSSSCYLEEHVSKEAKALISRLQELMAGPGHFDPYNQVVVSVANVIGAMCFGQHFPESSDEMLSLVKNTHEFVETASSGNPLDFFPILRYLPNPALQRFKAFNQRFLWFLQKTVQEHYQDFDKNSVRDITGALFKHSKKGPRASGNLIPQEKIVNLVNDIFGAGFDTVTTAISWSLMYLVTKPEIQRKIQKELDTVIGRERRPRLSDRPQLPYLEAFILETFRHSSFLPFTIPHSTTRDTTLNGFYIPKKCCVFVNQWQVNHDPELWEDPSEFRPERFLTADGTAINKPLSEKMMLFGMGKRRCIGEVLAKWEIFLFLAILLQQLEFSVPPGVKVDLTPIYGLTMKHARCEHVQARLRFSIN

[2] = target: Cytochrome P450 3A4 (Homo sapiens, UniProt P08684);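 further: CYP3A4 tested as one member of a cytochrome P450 panel screen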
Cytochrome P450 3A4, sequence (P08684 whole entry): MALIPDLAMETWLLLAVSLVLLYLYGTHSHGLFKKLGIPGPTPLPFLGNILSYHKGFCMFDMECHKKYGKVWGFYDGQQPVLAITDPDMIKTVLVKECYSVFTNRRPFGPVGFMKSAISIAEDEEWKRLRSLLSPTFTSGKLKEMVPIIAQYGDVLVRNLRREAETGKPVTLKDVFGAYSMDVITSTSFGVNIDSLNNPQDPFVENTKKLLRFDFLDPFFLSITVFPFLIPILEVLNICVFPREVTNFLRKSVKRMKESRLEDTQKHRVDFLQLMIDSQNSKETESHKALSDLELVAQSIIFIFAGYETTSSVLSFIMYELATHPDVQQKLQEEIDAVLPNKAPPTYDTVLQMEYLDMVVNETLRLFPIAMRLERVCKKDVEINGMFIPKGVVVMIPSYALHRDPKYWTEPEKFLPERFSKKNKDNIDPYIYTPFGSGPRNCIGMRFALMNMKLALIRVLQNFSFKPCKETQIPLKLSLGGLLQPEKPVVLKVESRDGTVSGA

[3] = target: T2, Rac GTPase-activating protein 1 (Homo sapiens, UniProt Q9H0H5); assay: MgcRacGAP GTPase-activating activity inhibitors, confirmation, biochemical, ADP Hunter fluorescence, primary and confirmatory (AID 624330); format: functional
T2 sequence (Q9H0H5 whole entry): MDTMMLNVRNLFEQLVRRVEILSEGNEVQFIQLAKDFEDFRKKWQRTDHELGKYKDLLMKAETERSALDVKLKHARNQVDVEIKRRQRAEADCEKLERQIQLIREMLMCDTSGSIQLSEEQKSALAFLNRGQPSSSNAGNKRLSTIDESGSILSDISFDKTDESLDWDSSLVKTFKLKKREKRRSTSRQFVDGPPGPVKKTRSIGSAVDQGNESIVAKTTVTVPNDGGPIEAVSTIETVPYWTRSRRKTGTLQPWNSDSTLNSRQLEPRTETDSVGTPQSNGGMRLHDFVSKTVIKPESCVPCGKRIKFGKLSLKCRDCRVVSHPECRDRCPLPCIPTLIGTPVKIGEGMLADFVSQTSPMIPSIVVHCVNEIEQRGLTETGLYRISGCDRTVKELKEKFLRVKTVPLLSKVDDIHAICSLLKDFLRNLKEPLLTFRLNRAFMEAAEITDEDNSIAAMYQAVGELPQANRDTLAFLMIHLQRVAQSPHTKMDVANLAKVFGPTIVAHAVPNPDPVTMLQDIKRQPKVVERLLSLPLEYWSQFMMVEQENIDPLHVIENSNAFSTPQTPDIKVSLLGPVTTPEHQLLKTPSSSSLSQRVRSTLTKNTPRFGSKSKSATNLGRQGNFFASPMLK

[4] = target: Cytochrome P450 2C9 (Homo sapiens, UniProt P11712)
Cytochrome P450 2C9, sequence (P11712 whole entry): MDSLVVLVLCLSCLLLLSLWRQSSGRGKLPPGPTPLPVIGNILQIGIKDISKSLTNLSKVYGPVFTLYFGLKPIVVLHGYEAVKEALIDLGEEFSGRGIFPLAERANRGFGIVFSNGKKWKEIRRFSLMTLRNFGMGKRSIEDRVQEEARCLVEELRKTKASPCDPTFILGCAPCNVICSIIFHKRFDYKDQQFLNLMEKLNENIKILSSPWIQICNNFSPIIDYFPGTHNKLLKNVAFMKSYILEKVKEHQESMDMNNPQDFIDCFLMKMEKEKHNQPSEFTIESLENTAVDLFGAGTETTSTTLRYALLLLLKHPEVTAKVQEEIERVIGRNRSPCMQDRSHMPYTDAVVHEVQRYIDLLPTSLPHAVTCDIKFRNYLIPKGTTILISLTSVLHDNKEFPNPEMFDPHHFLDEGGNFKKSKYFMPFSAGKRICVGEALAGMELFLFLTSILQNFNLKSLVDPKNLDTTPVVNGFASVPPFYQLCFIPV

[5] = target: Cytochrome P450 2D6 (Homo sapiens, UniProt P10635)
Cytochrome P450 2D6, sequence (P10635 whole entry): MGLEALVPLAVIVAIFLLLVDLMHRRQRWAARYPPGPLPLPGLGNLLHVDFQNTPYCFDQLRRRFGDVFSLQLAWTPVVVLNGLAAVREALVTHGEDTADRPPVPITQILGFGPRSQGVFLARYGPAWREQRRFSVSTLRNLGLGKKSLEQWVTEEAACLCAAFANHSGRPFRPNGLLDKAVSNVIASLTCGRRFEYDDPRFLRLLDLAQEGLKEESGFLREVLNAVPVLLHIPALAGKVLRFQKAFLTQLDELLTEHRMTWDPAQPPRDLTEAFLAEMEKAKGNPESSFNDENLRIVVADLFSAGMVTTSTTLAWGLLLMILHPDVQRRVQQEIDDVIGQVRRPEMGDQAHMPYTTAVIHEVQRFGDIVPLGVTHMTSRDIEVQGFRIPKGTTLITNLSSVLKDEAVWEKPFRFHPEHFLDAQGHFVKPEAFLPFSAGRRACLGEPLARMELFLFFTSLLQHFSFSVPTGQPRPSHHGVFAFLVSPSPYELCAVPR

[6] = target: Cytochrome P450 2C19 (Homo sapiens, UniProt P33261); assay: Cytochrome panel assay with activity outcomes. Panel member name: p450-cyp2c19 Compounds with AC50 equal or less than 10 uM are considered active; format: functional; conditions: read-out: AC50
Cytochrome P450 2C19, sequence (P33261 whole entry): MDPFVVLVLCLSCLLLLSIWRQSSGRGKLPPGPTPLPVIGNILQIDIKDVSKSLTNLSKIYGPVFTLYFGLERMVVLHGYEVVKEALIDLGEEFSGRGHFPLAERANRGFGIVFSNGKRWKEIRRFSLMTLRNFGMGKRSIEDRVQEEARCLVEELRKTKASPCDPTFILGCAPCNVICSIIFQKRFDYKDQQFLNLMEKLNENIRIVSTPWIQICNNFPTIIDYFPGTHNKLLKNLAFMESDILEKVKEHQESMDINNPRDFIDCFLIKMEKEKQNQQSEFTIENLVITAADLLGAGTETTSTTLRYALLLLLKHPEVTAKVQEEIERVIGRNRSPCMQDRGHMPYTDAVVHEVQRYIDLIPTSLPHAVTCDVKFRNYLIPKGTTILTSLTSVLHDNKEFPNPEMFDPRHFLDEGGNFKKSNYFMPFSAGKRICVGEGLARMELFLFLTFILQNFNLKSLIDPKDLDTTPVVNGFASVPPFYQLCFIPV

[7] = target: T3, Corticotropin-releasing factor receptor 2/Corticotropin-releasing factor-binding protein (Homo sapiens, UniProt P24387+Q13324); assay: activators of CRF receptor 2 with binding protein – uHTS hits, confirmation (AID 602473); format: functional; conditions: read-out: EC50_Mean
T3 sequence (Q13324 whole entry): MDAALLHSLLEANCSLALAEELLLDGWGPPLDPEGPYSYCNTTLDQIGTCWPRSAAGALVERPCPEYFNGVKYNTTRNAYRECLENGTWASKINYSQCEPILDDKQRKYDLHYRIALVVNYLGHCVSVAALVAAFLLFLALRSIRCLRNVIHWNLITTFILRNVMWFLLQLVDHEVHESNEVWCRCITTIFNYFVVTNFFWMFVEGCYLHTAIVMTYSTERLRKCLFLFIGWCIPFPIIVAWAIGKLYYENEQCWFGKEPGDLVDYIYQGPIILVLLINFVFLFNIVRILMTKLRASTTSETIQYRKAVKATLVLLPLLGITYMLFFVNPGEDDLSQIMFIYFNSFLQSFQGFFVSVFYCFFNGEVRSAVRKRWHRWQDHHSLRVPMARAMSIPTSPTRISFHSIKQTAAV
T3 sequence (P24387 whole entry): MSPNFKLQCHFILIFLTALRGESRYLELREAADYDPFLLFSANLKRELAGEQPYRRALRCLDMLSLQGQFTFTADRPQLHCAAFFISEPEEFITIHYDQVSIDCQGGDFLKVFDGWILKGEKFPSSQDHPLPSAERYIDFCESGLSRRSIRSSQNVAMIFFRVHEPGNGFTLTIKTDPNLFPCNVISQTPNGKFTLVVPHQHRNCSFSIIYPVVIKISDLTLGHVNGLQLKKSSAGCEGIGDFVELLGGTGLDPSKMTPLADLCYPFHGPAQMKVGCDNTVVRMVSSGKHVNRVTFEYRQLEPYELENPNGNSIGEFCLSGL

[8] = HEp-2 cell cytotoxicity, dose response, cytotoxicity control for RSV inhibitor project, HTS (AID 2410); format: functional; conditions: human respiratory syncytial virus

Compound: Cc1nn(C(C)C(=O)Nc2sc3c(c2C#N)CCCC3)c(C)c1[N+](=O)[O-] (stereo unspecified)
- AC50 [4]: 3.98 µM (inconclusive)

Compound: Cc1ccc(Cn2cnc3c(nnn3Cc3ccc(Cl)cc3)c2=O)cc1
- AC50 [6]: 4.47 µM (inconclusive)
- AC50 [1]: 25.1 µM (inconclusive)

Compound: O=c1c(CCc2ccccc2)nc2cncnc2n1C1CC1
- AC50 [6]: 39.8 µM (inconclusive)
- AC50 [5]: 15.8 µM (inconclusive)
- AC50 [2]: 10 µM (inconclusive)
- AC50 [4]: 25.1 µM (inconclusive)

Compound: CC(C)NC(=O)N1CCN(c2ccncc2S(=O)(=O)N2CCOCC2)CC1
- AC50 [6]: 39.8 µM (inconclusive)
- AC50 [4]: 35.5 µM (inconclusive)

Compound: O=C(CSc1ccccc1)Nc1ccc(NC(=O)c2ccco2)cc1
- AC50 [6]: 14.1 µM (inconclusive)
- AC50 [4]: 20 µM (inconclusive)

Compound: CCC(CC)C(=O)c1c[nH]c(C(=O)NCCc2ccccn2)c1
- AC50 [6]: 20 µM (inconclusive)
- AC50 [1]: 14.1 µM (inconclusive)
- AC50 [2]: 20 µM (inconclusive)
- AC50 [4]: 39.8 µM (inconclusive)

Compound: O=C(Nc1cccc(F)c1)c1cc(S(=O)(=O)N2CCOCC2)ccc1N1CCCC1
- EC50 [7]: > 53 µM (inactive)

Compound: Cn1c(=O)[nH]c(=O)c2c1nc(NCCCO)n2CCCc1ccccc1
- AC50 [4]: 12.6 µM (inconclusive)

Compound: Cc1cc(Cl)cc2sc(S)nc12
- IC50 [3]: 85.4 µM (active)

Compound: Cc1ccccc1OCCC(=O)Nc1cc(S(=O)(=O)N2CCCCC2)ccc1N1CCN(C)CC1
- EC50 [7]: 9.71 µM (active)

Compound: C/C(=N/NS(=O)(=O)c1ccc(Br)cc1)c1ccc(NC(=O)c2ccc(C)o2)cc1
- CC50 [8]: 38 µM (active)

Compound: O=C(O)Cc1cccnc1C(=O)O
- AC50 [1]: 39.8 µM (inconclusive)

Compound: Cc1[nH]c2ccccc2c1/C=N/NC(=O)c1cccc(S(=O)(=O)Nc2cccc(C(F)(F)F)c2)c1
- CC50 [8]: 12.2 µM (active)

More lines, now with the values ahead:

- AC50 [1]: 3.16 µM (inconclusive)
- AC50 [2]: 15.8 µM (inconclusive)
Compound: CCNc1ncc2nc(-c3cc(F)cc(F)c3)c(=O)n(C[C@H]3CCCO3)c2n1

- IC50 [3]: 70.8 µM (active)
Compound: CCOc1cc(N2CCOCC2)c(OCC)cc1NC(=O)c1ccc(C)s1

- AC50 [5]: 12.6 µM (inconclusive)
- AC50 [4]: 0.794 µM (inconclusive)
Compound: COc1ccc2[nH]cc(CCNc3ccnc(-c4c(C)noc4C)n3)c2c1

- AC50 [5]: 15.8 µM (inconclusive)
- AC50 [1]: 12.6 µM (inconclusive)
Compound: C#CCN1C(C)=C(C(=O)OC)[C@@H](c2cccc([N+](=O)[O-])c2)C(C(=O)OCC)=C1C

- IC50 [3]: 105 µM (active)
Compound: Cc1ccnc(Nc2nc(-c3ccc(O)cc3)cs2)c1

- AC50 [1]: 22.4 µM (inconclusive)
Compound: CCOC(=O)c1cnc2c(cnn2C)c1NCCCN(C)C

- IC50 [3]: 63 µM (active)
Compound: CCN(CC)c1ccc(NC(=O)COc2ccc(-n3cnnn3)cc2)cc1

- AC50 [1]: 8.91 µM (inconclusive)
Compound: Cc1cc(Nc2ccccc2)nc(N)n1

- IC50 [3]: 108 µM (active)
Compound: COc1cc(C(C)n2nnc3ccccc32)ccc1O (stereo unspecified)

- IC50 [3]: 104 µM (active)
Compound: O=C(CNC(=O)c1ccco1)N/N=C/c1ccc(O)cc1O

- IC50 [3]: 32.1 µM (active)
Compound: CCOc1cc(/C=N/Nc2ncc(C)c(O)n2)ccc1O
